Assay results: patent US20060194217A1, “Method of genotyping and phenotyping hepatitis B viruses resistant to antiviral molecules” (priority 2005, published 2006)

How the values were obtained:
[1] = test system: HBV quasi-species of patient sample N° 19; test: High throughput phenotyping assay: patient sample N° 19; format: cell-based, hepatitis B virus; conditions: for IC50: Hepatitis B virus, 96 h, sample N° 19, M24 3TC M3 PMEA, INNO LiPA L180M A181V, 4 days treatment; for Increase in resistance: IC50 compared with referent virus
Procedure: (§1) The DNA from 1 ml of serum was extracted using the QIAamp Ultrasens Virus kit (Qiagen), and was taken up in 60 μl of water.
(§2) An amplification of the whole genomes by the method of the invention including the Nar I site was carried out and the amplicons obtained were purified by means of a silica column (Qiagen kit, Qiaquick purification kit).
(§3) The amplicons were then digested with the Nar I enzyme and purified by the same method as above.
(§4) These amplicons were transfected, in a culture format comprising a 25 cm^2 flask seeded the day before at a density of 5.2×10^4 cells/cm^2, with 200 to 400 ng of amplicon/cm^2.
(§5) After 60 hours, the cells were trypsinized and then treated with DNAse. After trypsinization, the cells were taken up in culture medium supplemented 50/50 with the two-times concentrated DNAse buffer (50 mM Tris, 1 mM CaCl2, 5 mM MgCl2, pH 8, 400 μg/ml of DNAse I) containing DNAse I, and incubated for 45 min at 37°. After pelleting, the cells were taken up in culture medium and distributed into 96-well culture plates coated (BioCoat) with collagen at a density of 6×10^4 cells/cm^2 in a volume corresponding to half the final volume used for the treatment with the drugs to be tested. This volume was completed with the 2-times concentration range of the drugs studied (Lamivudine and Adefovir)
(§6) The ranges used were from 100 to 0.01 μM for Lamivudine and from 100 to 6.25 μM for Adefovir. These cultures were treated with these dilutions for 4 days.
(§7) At the end of these 4 days of treatment, the viral DNA was extracted.
(§8) This step was carried out after washing the cells with PBS and adding the extraction buffer, i.e. 50 μl per 30 mm^2 (96-well format) (25 mM Tris, 0.5 mM CaCl2, 2.5 mM MgCl2, pH 8, 0.4 mg/ml DNAse, 0.4 mg/ml RNAse, 1% NP40). The lysis lasted one hour at 37° C. with agitation on a Heidolph Titramax 1000 plate mixer at a rotation rate of about 1050 rpm.
After this step of lysis and of digestion with DNAse and RNAse, the viral DNA produced during the culturing remains protected in the viral capsids. This DNA was then extracted by denaturation of the viral capsids by means of alkalinization of the extraction buffer by addition of NaOH, i.e. 15 μl of a 0.4M solution per 50 μl of extraction buffer. This denaturation was carried out at 37° C. for 30 min under the same agitation conditions as during the treatment with DNAse, i.e. on a Heidolph Titramax 1000 plate mixer at a rotation rate of about 1050 rpm.
This denaturation step was then stopped by adding a neutralizing buffer, 15 μl of 1M Tris at pH 7, and the solution thus obtained was subjected to a dilution before quantification by real time PCR. The final dilution is ⅕ relative to the initial volume of extraction buffer, i.e. an addition of 170 μl of water in a 96-well format.
(§9) The viral DNA extracted was then quantified by means of real time PCR quantification method.
This HBV production quantification step can be directly carried out after the preceding step, without any need to purify or concentrate the cell lysates to be assayed. The real time PCR can be carried out in the same format as the culture format, i.e. a 96-well format on the Biorad MyiQ device, using the real time kit and the consumables suitable for this device, i.e. the iQ™ Sybr® Green Supermix two-times concentrated PCR mix. […] (quantification step), and a final extension of one minute at 63° C. […]
(§10) For each plate assayed, a standard curve of 10^6 to 10^2 HBV copies/reaction was quantified in parallel. […]

[2] = test system: HBV quasi-species of patient sample N° 17; test: High throughput phenotyping assay: patient sample N° 17; format: cell-based, hepatitis B virus; conditions: for IC50: Hepatitis B virus, 96 h, sample N° 17, M24 3TC, INNO LiPA L180M ± M204I, 4 days treatment; for Increase in resistance: sample N° 17, IC50 compared with referent virus
Procedure: as §1, §2, §3, §4, §5, §6, §7, §8
(§11) After this step of lysis and of digestion with DNAse and RNAse, the viral DNA produced during the culturing remains protected in the viral capsids. […]
(§12) This denaturation step was then stopped by adding a neutralizing buffer, 15 μl of 1M Tris at pH 7, and the solution thus obtained was subjected to a dilution before quantification by real time PCR. […]
as §9
(§13) This HBV production quantification step can be directly carried out after the preceding step, without any need to purify or concentrate the cell lysates to be assayed. […] (quantification step), and a final extension of one minute at 63° C. […]
as §10

[3] = test system: HBV quasi-species of patient sample N° 21; test: High throughput phenotyping assay: patient sample N° 21; format: cell-based, hepatitis B virus; conditions: for IC50: Hepatitis B virus, 96 h, sample N° 21, D0 3TC, naïve, INNO LiPA wt, 4 days treatment; for Increase in resistance: sample N° 21, IC50 compared with referent virus
Procedure: as §1, §2, §3, §4, §5, §6, §7, §8, §11, §12, §9, §13, §10

[4] = test system: HBV quasi-species of patient sample N° 5; test: High throughput phenotyping assay: patient sample N° 5; format: cell-based, hepatitis B virus; conditions: for IC50: Hepatitis B virus, 96 h, sample N° 5, D0 3TC, naïve, INNO LiPA wt, 4 days treatment; for Increase in resistance: sample N° 5, IC50 compared with referent virus
Procedure: as §1, §2, §3, §4, §5, §6, §7, §8, §11, §12, §9, §13, §10

[5] = test system: HBV quasi-species of patient sample N° 7; test: High throughput phenotyping assay: patient sample N° 7; format: cell-based, hepatitis B virus; conditions: for IC50: Hepatitis B virus, 96 h, sample N° 7, M18 3TC, INNO LiPA L80V M204I, 4 days treatment; for Increase in resistance: sample N° 7, IC50 compared with referent virus
Procedure: as §1, §2, §3, §4, §5, §6, §7, §8, §11, §12, §9, §13, §10

[6] = test system: HBV quasi-species of patient sample N° 3; test: High throughput phenotyping assay: patient sample N° 3; format: cell-based, hepatitis B virus; conditions: for IC50: Hepatitis B virus, 96 h, sample N° 3, D0 3TC, naïve, INNO LiPA wt, 4 days treatment; for Increase in resistance: sample N° 3, IC50 compared with referent virus
Procedure: as §1, §2, §3, §4, §5, §6, §7, §8, §11, §12, §9, §13, §10

[7] = test system: reference HBV, genotype D, ayw serotype, wild-type phenotype; test: High throughput phenotyping assay, HBV genomic amplicon transfected, viral DNA by real time PCR: referent virus; format: cell-based; conditions: Hepatitis B virus, 96 h, Referent virus (genotype D, ayw, without known mutation), 4 days treatment
Procedure: In addition to the 6 samples analysed, a control was included. This control is a genome of the reference HBV, genotype D, having an ayw serotype and a wild-type phenotype for all the drugs studied. This genome was amplified by the same technique as the samples analysed using a plasmid.
as §2, §3, §4
After 60 hours, the cells were trypsinized and then treated with DNAse. […]
as §12, §9, §13

[8] = test system: HBV; conditions: cited from earlier work

| Molecule | IC50 [1] [µM] | Increase in resistance ([1]; sample N° 19) | IC50 [2] [µM] | Increase in resistance [2] | IC50 [3] [µM] | Increase in resistance [3] | IC50 [4] [µM] | Increase in resistance [4] | IC50 [5] [µM] | Increase in resistance [5] | IC50 [6] [µM] | Increase in resistance [6] | IC50 [7] [µM] | chronic carriers that it is possible to treat [8] | in vitro phenotype ([1]; sample N° 19) |
| --- | --- | --- | --- | --- | --- | --- | --- | --- | --- | --- | --- | --- | --- | --- | --- |
| Nc1ccn([C@@H]2CS[C@H](CO)O2)c(=O)n1 [Lamivudine] | 40 | 400 | > 100 | >1000 | 0.14 | 1.4 | 0.2 | 2 | > 100 | >1000 | 0.7 | 7 | 0.1 | – | – |
| alpha-interferon | – | – | – | – | – | – | – | – | – | – | – | – | – | approximately 40% | – |
| Nc1ncnc2c1ncn2CCOCP(=O)(O)O [Adefovir] | 52 | 6.5 | 14 | 1.75 | 14.5 | 1.8 | 8 | 1 | 13.5 | 1.7 | 9 | 1.1 | 8 | – | doubly resistant |
